In patent publication US7473688B2, “Indolobenzazepine HCV NS5B inhibitors” (Bristol-Myers Squibb Company, priority 2005, dated 2009):
Where two headings read alike, the source gives them in different places.

Columns and labels:
[1] = system: HCV replicon; assay: HCV replicon FRET assay; assay type: cell-based; conditions: Hepatitis C virus, FRET assay, read-out: EC50*
How it was run: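 HCV replicon cells, with or without Renilla luciferase reporter, incubated with titrated compounds at 37 °C; Alamar blue read for cytotoxicity. NS3 protease activity read from lysates with 20 μM EDANS/DABCYL FRET peptide (340/490 nm, kinetic), or by Dual-Glo luciferase. Background from highest protease-inhibitor wells; EC50 = 50% signal reduction.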

[2] = target: T1, HCV NS5B (Hepatitis C virus genotype 1b, UniProt Q9WMX2); assay: HCV NS5B RdRp enzyme assay (preincubation protocol); assay type: biochemical; conditions: read-out: IC50*
T1 construct: The protein was expressed with an 18 amino acid C-terminal truncation to enhance the solubility; made in house; host or cells: E. coli BL21 (DE3), pET21a
How it was run: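 Preincubation format: enzyme (14 nM, genotype 1b, 18-residue C-terminal truncation) meets diluted compound first; reaction started with bead-bound biotinylated dT12 primer, polyA template 0.2 nM and 0.29 μM 3H-UTP. Run 4 h, 30 °C in Hepes pH 7.5; scintillation proximity signal; IC50 fitted from seven inhibitor levels.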

T1 sequence (Q9WMX2 2420-2992): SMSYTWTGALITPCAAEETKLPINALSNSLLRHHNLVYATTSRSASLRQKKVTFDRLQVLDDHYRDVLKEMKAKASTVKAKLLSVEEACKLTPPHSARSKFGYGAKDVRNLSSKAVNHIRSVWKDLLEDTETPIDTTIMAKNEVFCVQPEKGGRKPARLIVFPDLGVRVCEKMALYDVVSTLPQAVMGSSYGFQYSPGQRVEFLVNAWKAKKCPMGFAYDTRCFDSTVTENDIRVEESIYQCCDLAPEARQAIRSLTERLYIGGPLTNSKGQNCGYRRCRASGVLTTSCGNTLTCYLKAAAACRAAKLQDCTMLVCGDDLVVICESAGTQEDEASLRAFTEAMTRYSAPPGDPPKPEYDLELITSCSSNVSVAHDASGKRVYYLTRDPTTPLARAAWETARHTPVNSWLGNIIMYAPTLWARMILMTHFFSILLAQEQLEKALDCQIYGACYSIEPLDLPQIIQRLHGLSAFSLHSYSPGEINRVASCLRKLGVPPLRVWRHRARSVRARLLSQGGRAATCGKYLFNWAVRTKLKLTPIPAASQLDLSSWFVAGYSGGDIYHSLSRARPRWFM

Row | Structure (SMILES) | EC50 ([1]; Table 1a) [nM] | IC50 ([2]; Table 1a) [nM] | EC50 ([1]; Table 1b) [nM] | IC50 ([2]; Table 1b) [nM]
1 | COc1ccc2c(c1)C=C(C(=O)N(C)CC(=O)N(C)C)Cn1c-2c(C2CCCCC2)c2ccc(C(=O)NS(=O)(=O)N(C)C)cc21 [drawing 238] | 30 to 1000 | 10 to 1000 |  | 
2 | COc1ccc2c(c1)C=C(C(=O)N1CCN(CC(F)(F)F)CC1)Cn1c-2c(C2CCCCC2)c2ccc(C(=O)NS(=O)(=O)N(C)C)cc21 [drawing 390] | 30 to 1000 | 10 to 1000 |  | 
3 | O=C(NS(=O)(=O)N1CCN(CC(F)(F)F)CC1)c1ccc2c(C3CCCCC3)c3n(c2c1)CC(C(=O)N1CCOCC1)=Cc1ccccc1-3 [drawing 391] | 30 to 1000 | 10 to 1000 |  | 
4 | COc1ccc2c(c1)C=C(C(=O)N1CCN(CC(F)(F)F)CC1)Cn1c-2c(C2CCCCC2)c2ccc(C(=O)NS(=O)(=O)N(C)C)cc21 [drawing 393] |  |  | 30 to 1000 | 20 to 1000
5 | O=C(NS(=O)(=O)N1CCN(CC(F)(F)F)CC1)c1ccc2c(C3CCCCC3)c3n(c2c1)CC(C(=O)N1CCOCC1)=Cc1ccccc1-3 [drawing 395] |  |  | 30 to 1000 | 20 to 1000
